Patent US7414173B1, “Isolated nucleic acid molecules encoding orally active androctonus amoreuxi pesticidal biopeptides” (E.I. du Pont de Nemours and Company, priority 2002, dated 2008)

Tests used:
[1] = tested on: corn plant hopper Perigrinus maidis; assay: Screening of Androctonus amoreuxi venom fractions for Homopteran activity; assay type: in vivo; details: HPLC fractions of venom
Experimental: This assay can be used for a variety of homopterans including, but not limited to, Myzus persicae and Perigrinus maidis. The assay involves trapping the sample between two layers of maximally stretched parafilm which act as a sachet on top of a small vessel containing the insect of choice.
The assay was prepared as follows: 1 cm diameter polystyrene tubing was cut into 15 mm lengths. One end of the tube was then capped with a fine mesh screen. Five insects were then added to the chamber after which the first layer of parafilm was stretched over the remaining open end. 25 μl of sample (polypeptide in a 5% sucrose solution containing McCormick green food coloring) was then placed on top of the stretched parafilm. A second layer of parafilm was then stretched by hand and placed over the sample. […] The assay tubes were monitored for insect reproduction and death on a 24 hour basis and compared to a 5% sucrose control.
Initial screening of five minute fractions of the venom from Androctonus amoreuxi indicated activity against the corn plant hopper Perigrinus maidis. […] Sufficient quantities of this purified protein were collected to allow confirmation of activity and to initiate protein sequencing by Edmund degradation as described in Example 2. The mature sequence was determined to be that indicated in SEQ ID NO:20. […]

[2] = tested on: embryonic neuronal cultures of the American cockroach Periplaneta americana; assay: Fluorescence imaging ratiometric assay; assay type: cell-based; details: Fluo-4 AM loaded neuronal cells
Description: Embryonic neuronal cultures of the American cockroach Periplaneta americana were established following the method of Beadle and Lees (See Beadle D. J. and Lees G., Chapter 5 in Cell Culture Approaches to Invertebrate Neuroscience, Beadle, D. J., Lees, G. and Kater, S. B. (eds.) Academic Press, New York 1988) with minor modification. Briefly, 24-day old oothecae were collected, surface-sterilized and cut open one third below the dorsal midline. The heads were then removed and placed in Schneider's Drosophila medium. Using fine forceps 32 brains were individually removed and placed in a small glass vial containing 790 μl of ‘5+4’ medium. […]
Cells were rinsed in standard physiological saline having the following composition (mM): NaCl 190; CaCl2 9; KCl 3.1; probenicid 1; Tris buffer 10; pH 7.2. […] Individual wells from the 96-well plate were sequentially excited with light at 495 nm and the emitted fluorescence at 530 nm detected using a Hamamatsu ORCA ER digital camera.
Acquisition control, image processing and image analysis were conducted using Universal Imaging Corporation's MetaMorph™ imaging software. […] Individual cells were separated and identified based on meeting designated morphometric criteria for total size and shape as previously determined experimentally for this cell type. […]

[3] = tested on: Myzus persicae (Green Peach Aphid); assay: Aphid bioassay on transgenic Arabidopsis thaliana events; assay type: in vivo; details: 35S promoter, versus controls
Description: cDNAs encoding potential sodium channel neurotoxins were identified from sequence data derived from a cDNA library of Centruroides vittatus telsons. […] Full length genes were PCR amplified with oligonucleotide primers introducing restriction enzyme sites at the 5′ and 3′ ends of the gene. The PCR products were TOPO-cloned into pCR2.1 (Invitrogen Co.) and the sequence was confirmed. The resulting constructs were then cloned into a binary vector between the Cauliflower mosaic virus 35S promoter and the NOS termination signal. The binary vector also contained a selection marker cassette including the Cauliflower mosaic 35S promoter, the BAR gene, and NOS terminator.
Binary constructs were electroporated into Agrobacterium tumefaciens strain C58. Transformed Agrobacterium cultures were grown in YM media for 2 days at 28° C. to an OD600 of approximately 1.0. Cells were pelleted by centrifugation and resuspended at the original culture volume in 5% sucrose with 0.05% Silwet L-77. The Agrobacterium slurry was sprinkled onto the inflorescences of flowering Arabidopsis thaliana (Landberg) plants using a 10-25 ml pipette. […]
Bioassays were performed on individual transformation events enclosed within plastic tubes with a fine mesh screen at the top to confine the aphids. […] Plants were scored for total number of adult aphids and nymphs at various intervals post infestation.

Molecule | activity against the corn plant hopper Perigrinus maidis (Homopteran activity) [1] | changes in Fluo-4 fluorescence (intracellular free calcium) [2] | aphid resistance (total number of adult aphids and nymphs) [3]
Aam1 (ADVPGNYPLDSSDNTYLCAPLGDNPDCIKICQKHGVDYGYCYAFQCWCEFLKDENVKV) | Homopteran activity was then found to be associated | changes in fluorescence characteristic of a sodium channel agonist | –
Ts7: polypeptide set forth in SEQ ID NO:22 and 24, identified from a Centruroides vittatus telsons cDNA library (protein) chain 1: MKFFLIVSLAIMSCFMEMKEVYAGTKGNFPVDFQGIFYECIVYNRCERDCKLHGSSYGYCYAGVCYCEGLADEDKYFLGM chain 2: GTKGNFPVDFQGIFYECIVYNRCERDCKLHGSSYGYCYAGVCYCEGLADEDKYFLGM | – | – | greater degree of aphid resistance than controls
